From patent US11198673B2, “Therapeutic compounds and compositions” (eXIthera Pharmaceuticals, Inc., priority 2014, dated 2021)

Columns and labels:
[1] = molecular target: T1, Thrombin (Homo sapiens, UniProt P00734); assay: Dose response assay for protease inhibitors: thrombin (FXIa fold selectivity); type: biochemical; details: fold selectivity for FXIa over thrombin
T1 construct: Thrombin; 0.2 μM in 50% glycerol (7.34 μg/mL)
Method: (§1) • Assay buffer: 20 mM Hepes, pH 7.4; 150 mM NaCl; 0.02% Tween 20 • Compounds: 10 mM stocks in DMSO • Substrate: 20 mM Glp-Pro-Arg-AMC, 25 mg/2.3 mL H2O (store at +4° C.) [Factor XIa, thrombin, and trypsin] • 20 mM Pro-Phe-Arg-AMC (Bachem I-1295), 25 mg/2.2 mL H2O (store at +4° C.) [Factor Xa] • Enzyme: Factor XIa; 0.25 μM in 50% glycerol (20 μg/mL) • Trypsin; 0.2 μM in 50% glycerol (4.8 μg/mL) • Thrombin; 0.2 μM in 50% glycerol (7.34 μg/mL) • Factor Xa; 0.2 μM in 50% glycerol (9.2 μg/mL) • These stocks are aliquoted ([…]) and stored at −20° C. Methods: • 1. Dilute the substrate to 100 μM in assay buffer (30 μL/6 mL). The enzyme is diluted to 0.5 nM just prior to use (12 μL/6 mL for Factor XIa; 15 μL/6 mL for all of the rest.) • 2. Pipette 50 μL of substrate into each well of the 96 well (12×8) microtiter plate. (Column 1 is used as the 100% activity control and receives no compound, and Column 12 is the blank and receives no enzyme.) Add an additional 46 μL to column 2. • 3. Pipette 4 μL of each compound into the appropriate well in column 2 of the plate (unknowns assayed in triplicate, standard assayed in duplicate). The final compound concentration will be 1/50th of the stock. • 4. Serially two-fold dilute the compound by mixing the sample in column 2, removing 50 μL to the next well (column 3), mix and remove to column 4, etc. until column 11. After mixing column 11, remove 50 μL and discard. • 5. Pipette 50 μL of buffer into column 12. Initiate the reaction by adding 50 μL of enzyme solution to each well of columns 1-11 as rapidly as possible. • 6. Read the plate in a spectrophotometer (SpectraMax) at 30° C., wherein each well is measured every 60 s for 30 min. For Factor Xa assays, each well is measured every 1 min for a total of 60 min. • 7. For Factor XIa assays, the compounds are assayed, in duplicate, at 3 different starting concentrations, 20, 2, and 0.2 μM; 1:10, 1:100, and 1:1000 dil'n of 10 mM stock. All data sets are combined for graphing and data fitting. • 8. Data can be used both for estimation of IC50 and for estimation of Kon.

[2] = molecular target: T2, human Factor XIa (Homo sapiens, UniProt P03951); assay: Factor XIa enzyme inhibition assay (IC50, purified enzyme); type: biochemical; details: purified enzyme 0.25 nM, substrate 50 μM; read-out: Potency hFXIa IC50
T2 construct: Enzyme: Factor XIa; 0.25 μM in 50% glycerol (20 μg/mL)
Method: as §1
Potential inhibitors of Factor XIa were evaluated using the following assay.
S-2366, pyroGlu-Pro-Arg-7-methylaminocourin (AMC), available from CPC Scientific, Inc., is based on the substrate pyro-Glu-Pro-Arg-pNA, available from Diapharma Group, Inc. (Columbus, Ohio), where the p-nitroanaline group is replaced with 7-methylaminocoumarin (AMC).
The final concentration of the substrate in the assay was 50 μM, and the final concentration of the enzyme was 0.25 nM. Inhibitors were tested by serial dilution over an appropriate range to yield a dose response curve for determination of the inhibitors' IC50 value. The assay mixture was read every minute for 30 minutes in order to generate progress curves. The plates were read in a Spectramax m5 Multimode Plate Reader (Molecular Devices LLC, Sunnyvale, Calif.). Dose response curves were fit to Equation 1 below in which A is the maximum inhibition, B is the minimum inhibition, C is the IC50, and D is the Hill coefficient. [(A−B)/(1+(X/C)^D)]+B (Equation 1)

[3] = molecular target: T3, Factor Xa (Homo sapiens, UniProt P00742); assay: Dose response assay for protease inhibitors: Factor Xa (FXIa fold selectivity); type: biochemical; details: fold selectivity for FXIa over Factor Xa
T3 construct: Factor Xa; 0.2 μM in 50% glycerol (9.2 μg/mL)
Method: as §1

[4] = tested on: Trypsin; assay: Dose response assay for protease inhibitors: trypsin (FXIa fold selectivity); type: biochemical; details: fold selectivity for FXIa over trypsin
Method: as §1

[5] = β-Lactam stability in rat plasma; type: in vitro ADME; details: normal rat plasma, room temperature; read-out: Rat Plasma Stability (T1/2; min)
Method: Normal rat plasma, stored at −80° C.
• 1. Place 6 μL of each compound into 0.5 mL microcentrifuge tubes or 96-well U-bottom, polypropylene microtiter plate • 2. Place 40 μL of acetonitrile (AcN) into 0.5 mL microcentrifuge tubes labeled 1-9 • 3. Add 114 μL of plasma to each compound • 4. Sample 10 μL of compound/plasma into AcN at 2, 10, 20, 30, 60, 90, 120, 240, and 480 min of incubation at room temperature • 5. Mix each time point after adding sample and place on ice. • 6. Centrifuge time points (12,000 rpm, 3 min), remove 15 μL of the supernatant and mix with 15 μL 0.1% TFA in a V-bottom microtiter plate. • 7. Place microtiter plate in autosampler of HPLC and analyze on Restek Pinnacle C18 column (2.1×100 mm). • 8. Generate extracted ion chromatogram for parent compound and parent compound+18 (H2O). Integrate extracted ion chromatograms (EIC) and plot % total peak area for parent and adduct versus time. Fit to a model of single phase exponential decay [Y=A0*exp(−k*x)+C]. T½ is equal to ln(2)/k.

T3 sequence (P00742 235-488 limits assumed): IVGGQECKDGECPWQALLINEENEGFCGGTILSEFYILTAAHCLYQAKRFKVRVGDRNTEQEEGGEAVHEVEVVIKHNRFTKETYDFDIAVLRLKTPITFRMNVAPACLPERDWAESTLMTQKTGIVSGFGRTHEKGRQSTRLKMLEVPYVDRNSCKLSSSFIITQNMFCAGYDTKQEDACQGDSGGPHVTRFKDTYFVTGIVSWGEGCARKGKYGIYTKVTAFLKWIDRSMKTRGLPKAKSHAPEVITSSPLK
T3 sequence (P00742 41-179 partner limits assumed): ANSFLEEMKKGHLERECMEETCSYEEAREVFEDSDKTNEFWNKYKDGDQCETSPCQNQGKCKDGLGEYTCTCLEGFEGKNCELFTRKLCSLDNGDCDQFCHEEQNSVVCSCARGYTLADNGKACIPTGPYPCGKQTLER
T2 sequence (P03951 388-625 limits assumed): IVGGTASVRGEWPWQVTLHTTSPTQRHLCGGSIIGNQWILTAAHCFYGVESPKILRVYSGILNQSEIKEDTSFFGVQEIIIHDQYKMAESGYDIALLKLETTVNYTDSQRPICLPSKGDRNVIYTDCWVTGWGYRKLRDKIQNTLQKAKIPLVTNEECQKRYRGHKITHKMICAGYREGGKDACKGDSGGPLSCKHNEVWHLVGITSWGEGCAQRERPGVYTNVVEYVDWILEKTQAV
T2 sequence (P03951 19-387 partner limits assumed): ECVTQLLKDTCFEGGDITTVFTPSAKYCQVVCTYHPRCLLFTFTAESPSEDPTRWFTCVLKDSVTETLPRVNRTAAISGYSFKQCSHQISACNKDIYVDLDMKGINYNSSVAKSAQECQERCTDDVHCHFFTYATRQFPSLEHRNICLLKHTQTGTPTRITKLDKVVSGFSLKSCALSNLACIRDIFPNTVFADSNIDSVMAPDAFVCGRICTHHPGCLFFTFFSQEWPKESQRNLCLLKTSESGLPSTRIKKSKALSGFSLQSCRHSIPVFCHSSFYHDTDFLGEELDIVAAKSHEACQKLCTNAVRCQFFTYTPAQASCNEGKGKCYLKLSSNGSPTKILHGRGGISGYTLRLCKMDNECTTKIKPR

Row | SMILES | FXIa Fold Selectivity Thrombin [1] | IC50 [2] [µM] | FXIa Fold Selectivity FXa [3] | FXIa Fold Selectivity Trypsin [4] | half-life [5] [h]
1 | C[C@@H](NC(=O)N1C(=O)[C@H](Cc2ccnc(N)c2)[C@H]1C(=O)OCc1ccccc1)c1ccccc1 [Example 1] | G (“G” indicates 1-500) | < 0.01 | G (“G” indicates 1-500) | G (“G” indicates 1-500) | 
2 | COC(=O)[C@@H]1[C@@H](Cc2ccc(Cl)s2)C(=O)N1C(=O)N[C@H](C)c1ccccc1 [Example 2] | G (“G” indicates 1-500) | > 1 |  | G (“G” indicates 1-500) | > 1.67
3 | NC(=O)[C@@H]1[C@@H](Cc2ccnc(N)c2)C(=O)N1C(=O)NC(c1ccccc1)c1ccccc1 [Example 22] | H (“H” indicates 500-1000) | < 0.01 | I (“I” indicates >1000) | I (“I” indicates >1000) | > 1.67
4 | Nc1ncc(C[C@H]2C(=O)N(C(=O)NC(c3ccccc3)c3ccccc3)[C@@H]2C(=O)O)s1 [Example 23] | G (“G” indicates 1-500) | 0.1 to 1 | G (“G” indicates 1-500) | G (“G” indicates 1-500) | 
5 | C[C@@H](NC(=O)N1C(=O)[C@H](Cc2cnc(N)s2)[C@H]1C(=O)O)c1ccccc1 [Example 24] | G (“G” indicates 1-500) | > 1 |  | G (“G” indicates 1-500) | 
6 | Nc1cc(CC[C@H]2C(=O)N(C(=O)NC(c3ccccc3)c3ccccc3)[C@@H]2C(=O)O)ccn1 [Example 25] | G (“G” indicates 1-500) | 0.1 to 1 | G (“G” indicates 1-500) | G (“G” indicates 1-500) | 
7 | C[C@@H](NC(=O)N1C(=O)[C@H](Cc2ccnc(N)c2)[C@H]1C(N)=O)c1ccccc1 [Example 26] | I (“I” indicates >1000) | < 0.01 | H (“H” indicates 500-1000) | I (“I” indicates >1000) | < 1.67
8 | Nc1cc(C[C@H]2C(=O)N(C(=O)NC(c3ccccc3)c3ccccc3)[C@@H]2Oc2ccccc2)ccn1 [Example 27] | G (“G” indicates 1-500) | 0.01 to 0.1 | H (“H” indicates 500-1000) | G (“G” indicates 1-500) | < 1.67
9 | N#C[C@@H]1[C@@H](Cc2ccnc(N)c2)C(=O)N1C(=O)NC(c1ccccc1)c1ccccc1 [Example 28] | I (“I” indicates >1000) | 0.01 to 0.1 | I (“I” indicates >1000) | G (“G” indicates 1-500) | < 1.67
10 | COc1cccc([C@@H](C)NC(=O)N2C(=O)[C@H](Cc3ccnc(N)c3)[C@H]2C(=O)O)c1 [Example 29] | I (“I” indicates >1000) | < 0.01 | I (“I” indicates >1000) | G (“G” indicates 1-500) | > 1.67
11 | Nc1cc(C[C@H]2C(=O)N(C(=O)NCC(c3ccccc3)c3ccccc3)[C@@H]2C(=O)O)ccn1 [Example 31] | G (“G” indicates 1-500) | 0.1 to 1 | G (“G” indicates 1-500) | G (“G” indicates 1-500) | > 1.67
12 | CC[C@@H](NC(=O)N1C(=O)[C@H](Cc2ccnc(N)c2)[C@H]1C(=O)O)c1ccccc1 [Example 36] | I (“I” indicates >1000) | < 0.01 | I (“I” indicates >1000) | G (“G” indicates 1-500) | 
13 | C[C@@H](NC(=O)N1C(=O)[C@H](Cc2ccnc(N)c2)[C@H]1C(=O)O)c1ccc(F)cc1 [Example 37] | I (“I” indicates >1000) | < 0.01 | H (“H” indicates 500-1000) | I (“I” indicates >1000) | 
14 | CCOC(=O)[C@@H]1[C@@H](Cc2ccnc(N)c2)C(=O)N1C(=O)NC(c1ccccc1)c1ccccc1 [Example 46] | G (“G” indicates 1-500) | 0.01 to 0.1 | I (“I” indicates >1000) | G (“G” indicates 1-500) | 
15 | C[C@@H](NC(=O)N1C(=O)[C@H](Cc2ccnc(N)c2)[C@H]1C(=O)O)c1cccnc1 [Example 54] | I (“I” indicates >1000) | 0.01 to 0.1 | H (“H” indicates 500-1000) | G (“G” indicates 1-500) | 
16 | CCCCCCOC(=O)Nc1cc(C[C@H]2C(=O)N(C(=O)NC(C)c3ccccc3)[C@@H]2C(=O)OCC)ccn1 (stereo partly shown) [Example 160] |  | 0.1 to 1 |  |  | < 1.67
17 | CC(C)OC(=O)[C@@H]1[C@@H](Cc2ccc(Cl)nc2)C(=O)N1C(=O)N[C@H](C)c1ccc2c(c1)OC(F)(F)O2 [Example 171] |  | > 1 |  |  | < 1.67
18 | CCCCCCOC(=O)Nc1cc(C[C@H]2C(=O)N(C(=O)N[C@H](C)c3ccccc3)[C@@H]2C(=O)O)ccn1 [Example 175] |  | > 1 |  |  | > 1.67
19 | CC(=O)OCOC(=O)[C@@H]1[C@@H](Cc2ccnc(NC(=O)OCOC(=O)C(C)C)c2)C(=O)N1C(=O)N[C@H](C)c1ccc2c(c1)OC(F)(F)O2 [Example 180] |  | 0.01 to 0.1 |  |  | < 1.67
